Source: ChEMBL document CHEMBL1201862, “PubChem BioAssay data set” (2004)
Activity calls are given as the source filed them. No stated cut-off is given here; in the data, actives have a measured IC50 and inactives only a lower limit.

Molecular target: Envelope glycoprotein gp160 (Human immunodeficiency virus 1, UniProt Q6QLK5)
Experiment: inhibitors of HIV fusion peptide binding, primary screen, biochemical, uHTS, fluorescence dequenching (AID 1986)

Envelope glycoprotein gp160, sequence (Q6QLK5 whole entry, the tested form may be a part): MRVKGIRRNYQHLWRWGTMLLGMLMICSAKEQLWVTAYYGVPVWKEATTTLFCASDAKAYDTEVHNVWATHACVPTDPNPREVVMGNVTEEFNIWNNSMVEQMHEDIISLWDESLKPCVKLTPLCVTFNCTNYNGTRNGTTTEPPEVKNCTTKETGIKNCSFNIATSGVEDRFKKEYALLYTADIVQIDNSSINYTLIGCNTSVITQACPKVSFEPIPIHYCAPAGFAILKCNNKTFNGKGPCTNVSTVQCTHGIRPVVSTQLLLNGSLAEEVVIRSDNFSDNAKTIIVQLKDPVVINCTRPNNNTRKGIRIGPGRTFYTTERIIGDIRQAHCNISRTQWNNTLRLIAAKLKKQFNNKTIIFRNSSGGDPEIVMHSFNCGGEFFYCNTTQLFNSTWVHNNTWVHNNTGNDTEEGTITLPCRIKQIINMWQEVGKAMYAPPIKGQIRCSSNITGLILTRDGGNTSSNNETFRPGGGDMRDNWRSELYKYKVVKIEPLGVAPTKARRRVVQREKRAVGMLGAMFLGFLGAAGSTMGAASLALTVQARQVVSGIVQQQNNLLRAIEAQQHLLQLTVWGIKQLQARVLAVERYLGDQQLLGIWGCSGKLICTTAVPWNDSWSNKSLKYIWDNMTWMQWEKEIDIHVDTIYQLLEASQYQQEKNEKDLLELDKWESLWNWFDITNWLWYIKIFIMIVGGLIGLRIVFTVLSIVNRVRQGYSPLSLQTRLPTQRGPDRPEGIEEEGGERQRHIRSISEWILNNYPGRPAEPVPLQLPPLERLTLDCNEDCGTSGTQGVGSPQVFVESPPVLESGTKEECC

Row | Structure (SMILES) | IC50
1 | CC(c1ccccc1)N1C(=O)c2ccc(C(=O)Nc3ccc(Br)cc3C(=O)O)cc2C1=O (configuration not stated) | 14.1 µM (active)
2 | CC(C)(C)c1ccc(S(=O)(=O)/N=C2\C=C(NS(=O)(=O)c3ccccc3)C(=O)c3ccccc32)cc1 | 9.23 µM (active)
